Data on 61 compounds can be found in patent US7504400B2, “MTP inhibiting aryl piperydines or piperazines substituted with 5-membered heterocycles” (Janssen Pharmaceutica N.V., priority 2004, dated 2009).

The test system of the assay is Secretion of ApoB. The assay is described as follows: Quantification of the secretion of ApoB in HepG2 cells. The settings on record: Homo sapiens, HepG2, 24 h, 24 hours of incubation with test compound, immunoprecipitation of apoB from medium, read-out: pIC50 value (=-log IC50 value), secretion of ApoB (converted). It is filed as cell-based. On the procedure: HepG2 cells were cultured in 24-well plates in MEM Rega 3 containing 10% fetal calf serum. At 70% confluency, the medium was changed and the test compound or carrier (DMSO, 0.4% final concentration) was added. After 24 hours of incubation, the medium was transferred to Eppendorf tubes and cleared by centrifugation. A sheep antibody directed against either apoB was added to the supernatant and the mixture was kept at 8° C. for 24 hours. Then, rabbit anti-sheep antibody was added and the immune complex was allowed to precipitate for 24 hours at 8° C. The immunoprecipitate was pelleted by centrifugation for 25 minutes at 1320 g and washed twice with a buffer containing 40 mM Mops, 40 mM NaH2PO4, 100 mM NaF, 0.2 mM DTT, 5 mM EDTA, 5 mM EGTA, 1% Triton-X-100, 0.5% sodium deoxycholate (DOC), 0.1% SDS, 0.2 μM leupeptin and 0.2 μM PMSF. Radioactivity in the pellet was quantified by liquid scintillation-counting. The IC50 values are usually converted to pIC50 values (=−log IC50 value) for ease of use.
As for `Cc1nn(-c2ccc(N3CCN(C(C(=O)NCc4ccccc4)c4ccccc4)CC3)cc2)c(=O)n1C(C)C` (stereo not shown) [Compound 40], the IC50 (commonly the concentration needed to halve the response being measured) is 316 to 3160 nM.
On to `CCCOC(=O)C(CN1CCN(c2ccc(-n3cnn(C(C)C)c3=O)cc2)CC1)c1ccccc1` (stereo not shown) [Compound 41], for which the IC50 was 316 to 3160 nM.
As for `CCCCNC(=O)C(c1ccccc1)N1CCN(c2ccc(-n3cnn(C(C)C)c3=O)cn2)CC1` (stereo not shown) [Compound 42], the IC50 is 316 to 3160 nM.
For the compound `CC(C)CNC(=O)C(c1ccccc1)N1CCN(c2ccc(-n3cnn(C(C)C)c3=O)cn2)CC1` (stereo not shown) [Compound 43], the IC50 was 316 to 3160 nM.
`CCCCCNC(=O)C(c1ccccc1)N1CCN(c2ccc(-n3cnn(C(C)C)c3=O)cn2)CC1` (stereo not shown) [Compound 44]: the IC50 was 31.6 to 316 nM.
Consider `CC(C)n1ncn(-c2ccc(N3CCN(C(C(=O)NCc4ccccn4)c4ccccc4)CC3)nc2)c1=O` (stereo not shown) [Compound 45], for which the IC50 was 316 to 3160 nM.
Take `CCNC(=O)C(c1ccccc1)N1CCN(c2ccc(-n3cnn(C(C)C)c3=O)cn2)CC1` (stereo not shown) [Compound 46]: the IC50 is 316 to 3160 nM.
`CCCNC(=O)C(c1ccccc1)N1CCN(c2ccc(-n3cnn(C(C)C)c3=O)cn2)CC1` (stereo not shown) [Compound 47]: the IC50 is 316 to 3160 nM.
In the case of `CC(C)n1ncn(-c2ccc(N3CCN(C(C(=O)NCc4ccccc4)c4ccccc4)CC3)nc2)c1=O` (stereo not shown) [Compound 48] it was 31.6 to 316 nM; in that of `C=CCNC(=O)C(c1ccccc1)N1CCN(c2ccc(-n3cnn(C(C)C)c3=O)cn2)CC1` (stereo not shown) [Compound 49], 316 to 3160 nM; in that of `CC(C)n1ncn(-c2ccc(N3CCN(C(C(=O)NCCC#N)c4ccccc4)CC3)nc2)c1=O` (stereo not shown) [Compound 50], 316 to 3160 nM.
Turning to `CCCCCn1ncn(-c2ccc(N3CCC(C(C(=O)Nc4ccccc4)c4ccccc4)CC3)cc2)c1=O` (stereo not shown) [Compound 51], the IC50 was 31.6 to 316 nM.
In the case of `C=CCn1ncn(-c2ccc(N3CCC(C(C(=O)Nc4ccccc4)c4ccccc4)CC3)cc2)c1=O` (stereo not shown) [Compound 52] it was 316 to 3160 nM; in that of `CCn1ncn(-c2ccc(N3CCC(C(C(=O)Nc4ccccc4)c4ccccc4)CC3)cc2)c1=O` (stereo not shown) [Compound 53], 316 to 3160 nM.
Turning to `Cc1ccc(C)c(NC(=O)C(c2ccccc2)N2CCN(c3ccc(-n4cnn(C(C)C)c4=O)cc3)CC2)c1` (stereo not shown) [Compound 54], the IC50 was 31.6 to 316 nM.
Turning to `CC(C)n1ncn(-c2ccc(N3CCN(C(C(=O)Nc4ccc(Cl)cc4)c4ccccc4)CC3)cc2)c1=O` (stereo not shown) [Compound 55], the IC50 was 31.6 to 316 nM.
The figure for `CC(C)n1ncn(-c2ccc(N3CCN(C(C(=O)Nc4ccccc4O)c4ccccc4)CC3)cc2)c1=O` (stereo not shown) [Compound 56] is 316 to 3160 nM; for `Cc1cccc(NC(=O)C(c2ccccc2)N2CCN(c3ccc(-n4cnn(C(C)C)c4=O)cc3)CC2)c1` (stereo not shown) [Compound 57] it is 31.6 to 316 nM.
On to `CC(C)n1ncn(-c2ccc(N3CCN(C(C(=O)Nc4cccc(C(F)(F)F)c4)c4ccccc4)CC3)cc2)c1=O` (stereo not shown) [Compound 58], for which the IC50 was 31.6 to 316 nM.
With `Cc1ccc(NC(=O)C(c2ccccc2)N2CCN(c3ccc(-n4cnn(C(C)C)c4=O)cc3)CC2)c(C)c1` (stereo not shown) [Compound 59], the 50% inhibitory concentration (IC50) was 31.6 to 316 nM.
In the case of `Cc1cc(C)cc(NC(=O)C(c2ccccc2)N2CCN(c3ccc(-n4cnn(C(C)C)c4=O)cc3)CC2)c1` (stereo not shown) [Compound 60], the IC50 is 31.6 to 316 nM.
Turning to `COc1cccc(NC(=O)C(c2ccccc2)N2CCN(c3ccc(-n4cnn(C(C)C)c4=O)cc3)CC2)c1` (stereo not shown) [Compound 61], the IC50 was 31.6 to 316 nM.
Turning to `CC(C)n1ncn(-c2ccc(N3CCN(C(C(=O)Nc4ccc(F)cc4F)c4ccccc4)CC3)cc2)c1=O` (stereo not shown) [Compound 62], the 50% inhibitory concentration (IC50) was 31.6 to 316 nM.
For the compound `CC(C)n1ncn(-c2ccc(N3CCN(C(C(=O)Nc4ccc5c(c4)OCCO5)c4ccccc4)CC3)cc2)c1=O` (stereo not shown) [Compound 63], the IC50 is 31.6 to 316 nM.
For `COc1cc(NC(=O)C(c2ccccc2)N2CCN(c3ccc(-n4cnn(C(C)C)c4=O)cc3)CC2)cc(C(F)(F)F)c1` (stereo not shown) [Compound 64], the IC50 is 31.6 to 316 nM.
Consider `CC(C)n1ncn(-c2ccc(N3CCN(C(C(=O)NCc4ccco4)c4ccccc4)CC3)cc2)c1=O` (stereo not shown) [Compound 65], for which the IC50 is 316 to 3160 nM.
Consider `CCOC(=O)CNC(=O)C(c1ccccc1)N1CCN(c2ccc(-n3cnn(C(C)C)c3=O)cc2)CC1` (stereo not shown) [Compound 66], for which the IC50 is 31.6 to 316 nM.
For `CC(C)n1ncn(-c2ccc(N3CCN(C(C(=O)NCCNc4cccc5ccccc45)c4ccccc4)CC3)cc2)c1=O` (stereo not shown) [Compound 67], the half-inhibitory concentration (IC50) is 316 to 3160 nM.
With `CC(C)n1ncn(-c2ccc(N3CCN(C(C(=O)NCC(C)(c4ccccc4)c4ccccc4)c4ccccc4)CC3)cc2)c1=O` (stereo not shown) [Compound 68], the IC50 is 316 to 3160 nM.
Regarding `CC(C)n1ncn(-c2ccc(N3CCN(C(C(=O)NC4Cc5ccccc5C4)c4ccccc4)CC3)cc2)c1=O` (stereo not shown) [Compound 69], the IC50 is 31.6 to 316 nM.
`CC(C)n1ncn(-c2ccc(N3CCN(C(C(=O)NCc4ccccn4)c4ccccc4)CC3)cc2)c1=O` (stereo not shown) [Compound 70]: the IC50 was 316 to 3160 nM.
For `COc1ccc(CNC(=O)C(c2ccccc2)N2CCN(c3ccc(-n4cnn(C(C)C)c4=O)cc3)CC2)cc1` (stereo not shown) [Compound 71], the IC50 was 316 to 3160 nM.
Consider `CC(C)n1ncn(-c2ccc(N3CCN(C(C(=O)NCCc4ccccn4)c4ccccc4)CC3)cc2)c1=O` (stereo not shown) [Compound 72], for which the IC50 was 316 to 3160 nM.
On to `CC(C)n1ncn(-c2ccc(N3CCN(C(C(=O)NCc4ccc(S(C)(=O)=O)cc4)c4ccccc4)CC3)cc2)c1=O` (stereo not shown) [Compound 73], for which the IC50 is 316 to 3160 nM.
Regarding `CC(C)NC(=O)C(CN1CCN(c2ccc(-n3cnn(C(C)C)c3=O)cc2)CC1)c1ccccc1` (stereo not shown) [Compound 74], the IC50 was 31.6 to 316 nM.
As for `CC(C)n1ncn(-c2ccc(N3CCN(C(C(=O)NCc4cccs4)c4ccccc4)CC3)cc2)c1=O` (stereo not shown) [Compound 75], the IC50 is 316 to 3160 nM.
`CC(C)n1ncn(-c2ccc(N3CCN(C(C(=O)NCc4cccc(C(F)(F)F)c4)c4ccccc4)CC3)cc2)c1=O` (stereo not shown) [Compound 77]: the IC50 is 31.6 to 316 nM.
With `COc1cc(CNC(=O)C(c2ccccc2)N2CCN(c3ccc(-n4cnn(C(C)C)c4=O)cc3)CC2)cc(OC)c1OC` (stereo not shown) [Compound 78], the half-inhibitory concentration (IC50) was 316 to 3160 nM.
With `CC(C)n1ncn(-c2ccc(N3CCN(C(C(=O)NCc4c(F)cccc4F)c4ccccc4)CC3)cc2)c1=O` (stereo not shown) [Compound 79], the IC50 is 316 to 3160 nM.
Turning to `CC(C)n1ncn(-c2ccc(N3CCN(C(C(=O)NCCNc4ccccc4)c4ccccc4)CC3)cc2)c1=O` (stereo not shown) [Compound 80], the IC50 is 31.6 to 316 nM.
The figure for `CC(C)n1ncn(-c2ccc(N3CCN(C(C(=O)NC4CC4)c4ccccc4)CC3)cc2)c1=O` (stereo not shown) [Compound 81] is 316 to 3160 nM; for `COc1ccc(CCNC(=O)C(c2ccccc2)N2CCN(c3ccc(-n4cnn(C(C)C)c4=O)cc3)CC2)cc1OC` (stereo not shown) [Compound 82] it is 31.6 to 316 nM; for `CC(C)n1ncn(-c2ccc(N3CCN(C(C(=O)NCc4cccc5ccccc45)c4ccccc4)CC3)cc2)c1=O` (stereo not shown) [Compound 83] it is 31.6 to 316 nM.
As for `CC(C)n1ncn(-c2ccc(N3CCN(C(C(=O)NCCCN(C)c4ccccc4)c4ccccc4)CC3)cc2)c1=O` (stereo not shown) [Compound 84], the IC50 is 316 to 3160 nM.
For `CC(C)n1ncn(-c2ccc(N3CCN(C(C(=O)NCCCc4ccccc4)c4ccccc4)CC3)cc2)c1=O` (stereo not shown) [Compound 85], the IC50 is 31.6 to 316 nM.
With `Cc1nn(C(C)C)c(=O)n1-c1ccc(N2CCN(C(C(=O)NCc3ccccc3)c3ccccc3)CC2)cc1` (stereo not shown) [Compound 86], the half-maximal inhibitory concentration (IC50) was 316 to 3160 nM.
`CCCn1ncn(-c2ccc(N3CCC(C(C(=O)NC(C)C)c4ccccc4)CC3)cc2)c1=O` (stereo not shown) [Compound 87]: the IC50 was 316 to 3160 nM.
For `CCCCn1ncn(-c2ccc(N3CCC(C(C(=O)NC(C)C)c4ccccc4)CC3)cc2)c1=O` (stereo not shown) [Compound 88], the IC50 was 31.6 to 316 nM.
As for `CCCCCn1ncn(-c2ccc(N3CCC(C(C(=O)NC(C)C)c4ccccc4)CC3)cc2)c1=O` (stereo not shown) [Compound 89], the IC50 is 316 to 3160 nM.
Regarding `CC(C)Cn1ncn(-c2ccc(N3CCC(C(C(=O)NC(C)C)c4ccccc4)CC3)cc2)c1=O` (stereo not shown) [Compound 90], the IC50 is 316 to 3160 nM.
As for `CC(C)NC(=O)C(c1ccccc1)C1CCN(c2ccc(-n3cnn(CC4CC4)c3=O)cc2)CC1` (stereo not shown) [Compound 91], the IC50 is 316 to 3160 nM.
The figure for `CC(C)NC(=O)C(c1ccccc1)C1CCN(c2ccc(-n3cnn(C/C=C/c4ccccc4)c3=O)cc2)CC1` (stereo not shown) [Compound 92] is 316 to 3160 nM.
`CCC(C)n1ncn(-c2ccc(N3CCN(C(C(=O)NCCO)c4ccccc4)CC3)cc2)c1=O` (stereo not shown) [Compound 94]: the IC50 was 316 to 3160 nM.
In the case of `C=CCNC(=O)C(c1ccccc1)N1CCN(c2ccc(-n3cnn(C(C)CC)c3=O)cc2)CC1` (stereo not shown) [Compound 95] it was 31.6 to 316 nM; in that of `CCCCCNC(=O)C(c1ccccc1)N1CCN(c2ccc(-n3cnn(C(C)CC)c3=O)cc2)CC1` (stereo not shown) [Compound 96], 31.6 to 316 nM; in that of `COc1ccc(CNC(=O)C(c2ccccc2)N2CCN(c3ccc(-n4cnn(C(C)C)c4=O)cc3)CC2)c(OC)c1` (stereo not shown) [Compound 97], 31.6 to 316 nM.
For the compound `CC(C)n1ncn(-c2ccc(N3CCN(CC(C(=O)NCC(F)(F)F)c4ccccc4)CC3)cc2)c1=O` (stereo not shown) [Compound 98], the half-maximal inhibitory concentration (IC50) is 31.6 to 316 nM.
The figure for `CCCNC(=O)C(c1ccccc1)C1CCN(c2ccc(-n3cnn(C(C)C)c3=O)cc2)CC1` (stereo not shown) [Compound 99] is 31.6 to 316 nM; for `CNC(=O)C(CN1CCN(c2ccc(-n3cnn(C(C)C)c3=O)cc2)CC1)c1ccccc1` (stereo not shown) [Compound 100] it is 31.6 to 316 nM; for `CCNC(=O)C(CN1CCN(c2ccc(-n3cnn(C(C)C)c3=O)cc2)CC1)c1ccccc1` (stereo not shown) [Compound 101] it is 31.6 to 316 nM.
Regarding `CC(C)n1ncn(-c2ccc(N3CCN(CC(C(=O)NCCC#N)c4ccccc4)CC3)cc2)c1=O` (stereo not shown) [Compound 102], the half-maximal inhibitory concentration (IC50) is 316 to 3160 nM.
